Data from patent publication US9149465B2, “Isoxazolines as inhibitors of fatty acid amide hydrolase” (Infinity Pharmaceuticals, Inc., priority 2009, dated 2015).

Molecular target: T1, human FAAH (Homo sapiens, UniProt O00519)
T1 construct: host or cells: COS-7 cells, transient transfection; 13,000 g membrane fraction solubilised in 1% Triton X-100
T1 sequence (O00519 1-579): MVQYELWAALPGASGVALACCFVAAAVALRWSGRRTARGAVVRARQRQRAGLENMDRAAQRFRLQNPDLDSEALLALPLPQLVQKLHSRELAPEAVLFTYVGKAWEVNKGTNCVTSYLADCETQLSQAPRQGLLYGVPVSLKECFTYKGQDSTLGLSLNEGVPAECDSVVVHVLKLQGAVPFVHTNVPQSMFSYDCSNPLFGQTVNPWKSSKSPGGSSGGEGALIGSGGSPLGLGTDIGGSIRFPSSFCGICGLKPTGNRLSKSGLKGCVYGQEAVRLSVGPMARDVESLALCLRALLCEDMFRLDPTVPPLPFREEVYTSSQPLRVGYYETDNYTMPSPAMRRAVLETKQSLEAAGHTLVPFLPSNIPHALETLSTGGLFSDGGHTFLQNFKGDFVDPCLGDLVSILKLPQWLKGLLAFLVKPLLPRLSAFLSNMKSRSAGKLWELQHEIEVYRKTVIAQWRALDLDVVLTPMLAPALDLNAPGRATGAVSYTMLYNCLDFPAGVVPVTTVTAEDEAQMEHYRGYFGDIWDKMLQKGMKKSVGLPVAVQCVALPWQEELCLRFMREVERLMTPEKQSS
Assay: Inhibition of human FAAH (AMC arachidonoyl amide fluorescence assay)
Assay type: biochemical
Conditions: inhibitor preincubated 30 minutes at room temperature; 20 μM AMC arachidonoyl amide; 4 hours; read-out: Activity (Ki, inhibitors of human FAAH)
Description: Human FAAH Preparation: COS-7 cells were split the day before, 1:5 into 150 mm x […] cell culture dishes (Corning Inc., Cat. No. 430599). Transient transfection took place at 30-40% confluency according to FuGENE 6 Transfection Reagent (Roche, Cat. No. 11814 443 001).
Transfection Procedure: The FuGENE transfection 6 reagent (45 uL) was added to 1410 μL of media (DMEM, serum free without pen/strep) in a 15 mL conical tube and incubated at room temp for 5 minutes, followed by the addition of FAAH plasmid DNA (15 μg) (OriGene Cat. No. TC119221, Genbank Accession No. NM_001441.1, 0.67 ug/uL) and a further incubation of 15 minutes at room temperature. The resulting solution was added into one dish of 30-40% confluent COS-7 cells in a drop-wise manner. The COS-7 cell dish was subsequently incubated for 48 hours. The cells are then harvested.
Harvest procedure: Media was aspirated from the dishes and the cells rinsed with 10 mL PBS. The PBS was removed and 3 mL of PBS added to the dish. The dish was scraped to resuspend the cells, and the subsequent cell suspension collected into a 15 mL conical tube. The cells were pelleted by centrifugation at 1200 rpm for 5 minutes in a bench top centrifuge. PBS was removed and the cell pellet snap frozen in liquid nitrogen and stored at −80° C.
COS-7 cells —FAAH purification: • (1) Fractionation: Frozen cell pellets from transient transfections were thawed on ice and resuspended in 12.5 mM Hepes pH 8.0, 100 mM NaCl, 1 mM EDTA (10 mL/0.2 g cell pellet). The pellets were dounce homogenized and then sonicated to produce cell extract. The cell extract was subsequently centrifuged at 1000 g to remove cellular debris. The pellet was discarded and the supernatant centrifuged at 13,000 g for 20 minutes. The pellet contained membrane bound FAAH. The supernatant was discarded and the pellet resolubilized. • (2) Re-solubilization: The fraction of interest, (13,000 g, membrane fraction) was re-suspended in 2.3 mL re-suspension buffer (20 mM Hepes pH 7.8, 10% v/v Glycerol, 1 mM EDTA, 1% Triton X-100) and the sample incubated on ice for 1 hour and then centrifuged to remove any particulate matter. The supernatant containing solubilized human FAAH was aliquoted and snap frozen in liquid nitrogen and stored at −80° C. until use. • (3) Characterization: Protein Concentration determined by Bradford assay. • SDS gel and Western blot to confirm presence of FAAH • FAAH activity assay • Km determination-96-well assay • Linear dependence—96-well assay • Standard compound Ki determination—384-well assay
Human FAAH assay; Experimental Protocol: A 0.1 mg/mL Human FAAH solution was made up in FAAH reaction buffer, and 24 ul pipeted into a 384 well plate. To this was added 1 μL of a 3 fold serially diluted inhibitor from a DMSO stock solution. The FAAH solution and inhibitor were incubated for 30 minutes at room temperature. The FAAH reaction was initiated by the addition of 25 μL of 40 μM AMC Arachidonoyl Amide in FAAH reaction buffer, yielding a final reaction human FAAH preparation concentration of 0.05 mg/ml and AMC-Arachidonoyl substrate concentration of 20 μM, reaction volume 50 μL. The reaction was allowed to proceed for 4 hours at room temperature. The reaction was stopped by the addition of 25 μL 12 μM a-ketoheterocycle (Cayman Chemicals, catalogue #10435). The microtiter plate was read in the envision plate reader.
The raw fluorescence was plotted on the y axis and the inhibitor concentration on the x axis to give a dose response inhibition curve. The data was fitted to a single site competitive inhibition equation, fixing the Km for the human enzyme to 12 μM and 9 μM respectively.

Row | SMILES | Ki [nM]
1 | COC1=NOC(c2ccc(Oc3ccccc3)cc2)C1 (single isomer, unassigned) [I-45] | ≥ 1000
2 | NC(=O)CNC(=O)c1ccc(OC2=NOC(c3ccc(OC(F)(F)F)cc3)C2)cn1 (racemic) [I-118] | 100 to 1000
3 | CC1(c2ccc(OC(F)(F)F)cc2)CC(Oc2ccc(C(=O)NO)nc2)=NO1 (racemic) [I-117] | ≤ 100
4 | CS(=O)(=O)c1ccc(OC2=NOC(c3ccc(Oc4ccccc4)cc3)C2)cc1 (single isomer, unassigned) [I-30] | ≤ 100
5 | CSc1ncc(OC2=NOC(c3ccc(OC(F)(F)F)cc3)C2)cn1 (racemic) [I-132] | 100 to 1000
6 | O=C(O)CCc1ccc(OC2=NOC(c3ccc(OC(F)(F)F)cc3)C2)cn1 (racemic) [I-128] | ≤ 100
7 | Nc1ccc(OC2=NOC(c3ccc(Oc4ccccc4)cc3)C2)cn1 (stereo not shown) [I-93] | ≤ 100
8 | O=C(NCCO)c1ccc(OC2=NOC(c3ccc(OC(F)(F)F)cc3)C2)cn1 (racemic) [I-109] | ≤ 100
9 | BrC1=NOC(CCc2ccccc2)C1 (single isomer, unassigned) [I-49] | 100 to 1000
10 | CC1(c2ccc(OC(F)(F)F)cc2)CC(Oc2cncnc2)=NO1 (racemic) [I-129] | ≤ 100
11 | CC1(c2ccc(OC(F)(F)F)cc2)CC(Oc2ccc(C(=O)NCC(F)(F)F)nc2)=NO1 (racemic) [I-116] | 100 to 1000
12 | CNC(=O)c1ccc(OC2=NOC(c3ccc(OC(F)(F)F)cc3)C2)cn1 (racemic) [I-107] | ≤ 100
13 | FC(F)(F)Oc1ccc(C2CC(Oc3cncc(-c4ccccc4)c3)=NO2)cc1 (racemic) [I-72] | 100 to 1000
14 | Fc1ccccc1OC1=NOC(c2ccc(Oc3ccccc3)cc2)C1 (racemic) [I-59] | 100 to 1000
15 | c1ccc(Oc2ccc(C3CC(Oc4cnc5ccccc5c4)=NO3)cc2)cc1 (single isomer, unassigned) [I-42] | ≤ 100
16 | COc1ccc([C@H]2CC(Oc3cccnc3)=NO2)cc1 (racemic) [I-38] | 100 to 1000
17 | N#Cc1cccc(OC2=NOC(c3ccc(Oc4ccccc4)cc3)C2)c1 (racemic) [I-58] | 100 to 1000

Row | SMILES | Ki [nM]
18 | O=C(O)c1ccc(OC2=NOC(c3ccc(Oc4ccccc4)cc3)C2)cn1 (racemic) [I-110] | ≤ 100
19 | COC(=O)c1cccc(-c2ccc(OC3=NOC(c4ccc(OC(F)(F)F)cc4)C3)cn2)c1 (racemic) [I-83] | 100 to 1000
20 | C#CCOc1ccc([C@H]2CC(Br)=NO2)cc1 (racemic) [I-142] | ≤ 100
21 | N#Cc1ccccc1OC1=NOC(c2ccc(Oc3ccccc3)cc2)C1 (single isomer, unassigned) [I-28] | ≥ 1000
22 | CCCCOc1ccc([C@H]2CC(Br)=NO2)cc1 (racemic) [I-20] | ≤ 100
23 | CC1(c2ccc(Oc3ccccc3)cc2)CC(Br)=NO1 (racemic) [I-76] | ≤ 100
24 | BrC1=NO[C@@H](c2ccc3c(c2)OCO3)C1 (racemic) [I-16] | ≤ 100
25 | c1ccc(Oc2ccc(C3CC(Oc4cnc5[nH]ccc5c4)=NO3)cc2)cc1 (racemic) [I-68] | ≤ 100
26 | CC1(c2ccc(OC(F)(F)F)cc2)CC(Br)=NO1 (racemic) [I-75] | ≤ 100
27 | BrC1=NOC(COCCc2ccccc2)C1 (single isomer, unassigned) [I-52] | 100 to 1000
28 | Fc1cccc(OC2=NOC(c3ccc(Oc4ccccc4)cc3)C2)c1 (single isomer, unassigned) [I-25] | 100 to 1000
29 | CN(C)C(=O)c1ccc(OC2=NOC(c3ccc(OC(F)(F)F)cc3)C2)cn1 (racemic) [I-108] | 100 to 1000
30 | COC(=O)c1ccc(OC2=NOC(c3ccc(Oc4ccccc4)cc3)C2)cc1 (racemic) [I-62] | ≤ 100
31 | CC(C)Oc1ccc([C@H]2CC(Br)=NO2)cc1 (racemic) [I-15] | ≤ 100
32 | COC(=O)c1ccc(C2CC(Br)=NO2)cc1 (racemic) [I-74] | ≤ 100
33 | c1ccc(OC2=NOC(c3ccc(Oc4ccccc4)cc3)C2)cc1 (single isomer, unassigned) [I-23] | ≥ 1000

Results, then the molecule that gave them:

Row | Ki [nM] | SMILES
34 | ≤ 100 | O=S(=O)(c1ccc([C@H]2CC(Br)=NO2)cc1)N1CCCCC1 (racemic) [I-210]
35 | 100 to 1000 | O=C(O)c1ccc(OC2=NOC(c3ccc(OC(F)(F)F)cc3)C2)cc1 (racemic) [I-177]
36 | ≥ 1000 | CN(C)S(=O)(=O)c1cccc(OC2=NOC(C)(c3ccc(OC(F)(F)F)cc3)C2)c1 (racemic) [I-233]
37 | ≥ 1000 | CN(C)S(=O)(=O)c1ccc(OC2=NOC(C)(c3ccc(OC(F)(F)F)cc3)C2)cc1 (racemic) [I-235]
38 | ≤ 100 | CC1(c2ccc(OC(F)(F)F)cc2)CC(Oc2cncc(-c3nnco3)c2)=NO1 (racemic) [I-228]
39 | ≤ 100 | O=C(O)c1ccc(OC2=NOC(c3ccc(C(F)(F)F)cc3)C2)cn1 (racemic) [I-170]
40 | 100 to 1000 | FC(F)(F)c1ccc(C2CC(Oc3cncnc3)=NO2)cc1 (racemic) [I-168]
41 | 100 to 1000 | FC(F)(F)Oc1ccc(C2CC(Oc3ccc(-c4nnn[nH]4)cc3)=NO2)cc1 (racemic) [I-175]
42 | ≤ 100 | CC1(c2ccc(OC(F)(F)F)cc2)CC(Oc2ccc(S(C)(=O)=O)nc2)=NO1 (racemic) [I-167]
43 | ≤ 100 | FC(F)(F)c1ccc(C2CC(Oc3cccc(-c4nnco4)c3)=NO2)cc1 (racemic) [I-217]
44 | ≥ 1000 | O=S(=O)(C1=NOC(c2ccc(OC(F)(F)F)cc2)C1)c1ccccc1 (racemic) [I-250]
45 | ≤ 100 | FC(F)(F)Oc1ccc(C2CC(Oc3ccc(-c4ccn[nH]4)nc3)=NO2)cc1 (racemic) [I-192]
46 | ≤ 100 | CC1(c2ccc(OC(F)(F)F)cc2)CC(Oc2ccc(F)c(-c3nnco3)c2)=NO1 (racemic) [I-227]
47 | 100 to 1000 | N#Cc1ccc(OC2=NOC(c3ccc(OC(F)(F)F)cc3)C2)cn1 (racemic) [I-178]
48 | ≤ 100 | CN(C)S(=O)(=O)c1ccc([C@H]2CC(Br)=NO2)cc1 (racemic) [I-206]
49 | ≤ 100 | FC(F)(F)Oc1ccc(C2CC(Oc3ccc(-c4cnoc4)nc3)=NO2)cc1 (racemic) [I-194]
50 | ≥ 1000 | CC1(c2ccc(OC(F)(F)F)cc2)CC(Oc2cc3ccccn3n2)=NO1 (racemic) [I-172]
51 | 100 to 1000 | CN(C)C(=O)c1ccc(C2CC(Oc3ccc(S(C)(=O)=O)nc3)=NO2)cc1 (racemic) [I-212]
52 | ≥ 1000 | O=C(O)c1ccc(-c2ccc(OC3=NOC(c4ccc(OC(F)(F)F)cc4)C3)cn2)o1 (racemic) [I-188]
53 | ≤ 100 | Cc1nnc(-c2cc(F)cc(OC3=NOC(c4ccc(OC(F)(F)F)cc4)C3)c2)o1 (racemic) [I-224]
54 | ≤ 100 | Cc1nnc(-c2cncc(OC3=NOC(C)(c4ccc(OC(F)(F)F)cc4)C3)c2)o1 (racemic) [I-229]
55 | ≤ 100 | CS(=O)(=O)c1ccc(OC2=NOC(c3ccc(C(F)(F)F)cc3)C2)cn1 (racemic) [I-169]
